# Results from patent US8188127B2, “Microbicidal composition” (Rohm and Haas Company, priority 2007, dated 2012).
# Values joined by “and” are separate entries in the source; they are usually repeats but may differ in a detail not shown here. Equal entries are not always repeated.
# Key:
# Type in all cases: cell-based
# A. niger ATCC # 16404 = test: Microtiter plate MIC / synergy test (Kull synergy index), mold, PDB medium; conditions: for Ca: MIC of first component (A) alone (QA) / Cb: MIC of MBIT alone (QB): PDB medium, 25° C.; for Cb: ppm AI of MBIT alone (MIC, QB) / Ca: ppm AI of first component (A) alone (MIC, QA): A. niger; for Ca: MIC of TCMTB alone: component alone
# Text: (§1) One measure of synergism is the industrially accepted method described by Kull, F. C.; Eisman, P. C.; Sylwestrowicz, H. D. and Mayer, R. L., in Applied Microbiology 9:538-541 (1961), using the ratio determined by the formula: Qa/QA+Qb/QB=Synergy Index (“SI”) wherein: • QA=concentration of compound A (first component) in ppm, acting alone, which produced an end point (MIC of Compound A). • Qa=concentration of compound A in ppm, in the mixture, which produced an end point. • QB=concentration of compound B (second component) in ppm, acting alone, which produced an end point (MIC of Compound B). • Qb=concentration of compound B in ppm, in the mixture, which produced an end point.
# (§2) When the sum of Qa/QA and Qb/QB is greater than one, antagonism is indicated. […] The lower the SI, the greater the synergy shown by that particular mixture. The minimum inhibitory concentration (MIC) of a microbicide is the lowest concentration tested under a specific set of conditions that prevents the growth of added microorganisms.
# (§3) Synergy tests were conducted using standard microtiter plate assays with media designed for optimal growth of the test microorganism. Minimal salt medium supplemented with 0.2% glucose and 0.1% yeast extract (M9GY medium) was used for testing bacteria; Potato Dextrose Broth (PDB medium) was used for testing yeast and mold. In this method, a wide range of combinations of microbicides was tested by conducting high resolution MIC assays in the presence of various concentrations of MBIT. High resolution MICs were determined by adding varying amounts of microbicide to one column of a microtitre plate and doing subsequent […] dilutions using an automated liquid handling system to obtain a series of endpoints ranging from 2 ppm to 10,000 ppm active ingredient.
# (§4) The synergy of the combinations of the present invention was determined against several microorganisms, as described in the Tables below. The bacteria were used at a concentration of about 5×10^6 bacteria per mL and the yeast and mold at 5×10^5 fungi per mL. These microorganisms are representative of natural contaminants in many consumer and industrial applications. […] (yeast and mold) or 30° C. (bacteria).
# (§5) In each test, Second Component (B) was MBIT and the First Component (A) was the other commercial microbicide.
# [1] = test system: Ps. aeruginosa ATCC # 9027; test: Microtiter plate MIC / synergy test (Kull synergy index), bacteria, M9GY medium; conditions: for Cb: ppm AI of MBIT alone (MIC, QB) / Ca: ppm AI of first component (A) alone (MIC, QA): Ps. aeruginosa
# Protocol: as §2, §3
# The bacteria were used at a concentration of about 5×10^6 bacteria per mL and the yeast and mold at 5×10^5 fungi per mL. These microorganisms are representative of natural contaminants in many consumer and industrial applications. […] (yeast and mold) or 30° C. (bacteria).
# as §5
# S. aureus ATCC # 6538 = test: as above; conditions: for Ca: MIC of first component (A) alone (QA) / Cb: MIC of MBIT alone (QB): M9GY medium, 30° C.; for Cb: ppm AI of MBIT alone (MIC, QB) / Ca: ppm AI of first component (A) alone (MIC, QA): S. aureus
# Text: as §1, §2, §3, §4, §5
# C. albicans ATCC # 10231 = test: Microtiter plate MIC / synergy test (Kull synergy index), yeast, PDB medium; conditions: for Ca: MIC of first component (A) alone (QA) / Cb: MIC of MBIT alone (QB): PDB medium, 25° C.; for Cb: ppm AI of MBIT alone (MIC, QB) / Ca: ppm AI of first component (A) alone (MIC, QA): C. albicans; for Ca: MIC of TCMTB alone: component alone
# Text: as §1, §2, §3, §4, §5
# [2] = A. niger ATCC # 16404, contact time 3 days
# [3] = A. niger ATCC # 16404, contact time 7 days
# [4] = Ps. aeruginosa ATCC # 9027, contact time 48 hrs, M9GY medium, 30° C.
# [5] = S. aureus ATCC # 6538, contact time 24 hrs
# [6] = S. aureus ATCC # 6538, contact time 48 hrs
# [7] = C. albicans ATCC # 10231, contact time 48 hrs
# [8] = C. albicans ATCC # 10231, contact time 72 hrs
structure (smiles),measurement,setting,value
CCCCCCCC(=O)O [Caprylic acid],Ca: MIC of first component (A) alone (QA),A. niger ATCC # 16404; [2],650 ppm AI
same,Ca: MIC of first component (A) alone (QA),A. niger ATCC # 16404; [3],875 ppm AI
same,Ca: MIC of first component (A) alone (QA),[1]; [4],>11000 ppm AI
same,Ca: MIC of first component (A) alone (QA),S. aureus ATCC # 6538; [5],425 ppm AI
same,Ca: MIC of first component (A) alone (QA),S. aureus ATCC # 6538; [6],425 ppm AI
same,Ca: MIC of first component (A) alone (QA),C. albicans ATCC # 10231; [7],65 ppm AI
same,Ca: MIC of first component (A) alone (QA),C. albicans ATCC # 10231; [8],87.5 ppm AI
"Cn1sc2ccccc2c1=O [MBIT, N-methyl-1,2-benzisothiazolin-3-one]",Cb: MIC of MBIT alone (QB),A. niger ATCC # 16404; [2],37.5 ppm AI and 75 ppm AI
same,Cb: MIC of MBIT alone,"A. niger ATCC # 16404; A. niger ATCC # 16404, contact time 3 days, component alone (Table 8)",75 ppm AI
same,Cb: MIC of MBIT alone,"A. niger ATCC # 16404; A. niger ATCC # 16404, contact time 3 days, component alone (Table 9)",37.5 ppm AI
same,Cb: MIC of MBIT alone,"A. niger ATCC # 16404; A. niger ATCC # 16404, contact time 3 days, component alone (Table 10)",37.5 ppm AI
same,Cb: MIC of MBIT alone (QB),A. niger ATCC # 16404; [3],150 ppm AI
same,Cb: MIC of MBIT alone,"A. niger ATCC # 16404; A. niger ATCC # 16404, contact time 7 days, component alone (Table 8)",150 ppm AI
same,Cb: MIC of MBIT alone,"A. niger ATCC # 16404; A. niger ATCC # 16404, contact time 7 days, component alone (Table 9)",150 ppm AI
same,Cb: MIC of MBIT alone,"A. niger ATCC # 16404; A. niger ATCC # 16404, contact time 7 days, component alone (Table 10)",150 ppm AI
same,"Cb: ppm AI of MBIT alone (MIC, QB)",A. niger ATCC # 16404; contact time 3 days,37.5 ppm AI and 75 ppm AI
same,"Cb: ppm AI of MBIT alone (MIC, QB)",A. niger ATCC # 16404; contact time 7 days,150 ppm AI
same,Cb: MIC of MBIT alone (QB),"[1]; Ps. aeruginosa ATCC # 9027, contact time 24 hrs, M9GY medium, 30° C.",75 ppm AI
same,Cb: MIC of MBIT alone,"[1]; Ps. aeruginosa ATCC # 9027, contact time 24 hrs, component alone (Table 8)",75 ppm AI
same,Cb: MIC of MBIT alone,"[1]; Ps. aeruginosa ATCC # 9027, contact time 24 hrs, component alone (Table 9)",75 ppm AI
same,Cb: MIC of MBIT alone (QB),[1]; [4],125 ppm AI
same,Cb: MIC of MBIT alone,"[1]; Ps. aeruginosa ATCC # 9027, contact time 48 hrs, component alone (Table 8)",125 ppm AI
same,Cb: MIC of MBIT alone,"[1]; Ps. aeruginosa ATCC # 9027, contact time 48 hrs, component alone (Table 9)",125 ppm AI
same,Cb: MIC of MBIT alone,"[1]; Ps. aeruginosa ATCC # 9027, contact time 48 hrs, component alone (Table 10)",125 ppm AI
same,"Cb: ppm AI of MBIT alone (MIC, QB)",[1]; contact time 24 hrs,75 ppm AI
same,"Cb: ppm AI of MBIT alone (MIC, QB)",[1]; contact time 48 hrs,125 ppm AI
same,Cb: MIC of MBIT alone (QB),S. aureus ATCC # 6538; [5],15 ppm AI and 30 ppm AI
same,Cb: MIC of MBIT alone,"S. aureus ATCC # 6538; S. aureus ATCC # 6538, contact time 24 hrs, component alone (Table 8)",30 ppm AI
same,Cb: MIC of MBIT alone,"S. aureus ATCC # 6538; S. aureus ATCC # 6538, contact time 24 hrs, component alone (Table 9)",30 ppm AI
same,Cb: MIC of MBIT alone,"S. aureus ATCC # 6538; S. aureus ATCC # 6538, contact time 24 hrs, component alone (Table 10)",15 ppm AI
same,Cb: MIC of MBIT alone (QB),S. aureus ATCC # 6538; [6],30 ppm AI
same,Cb: MIC of MBIT alone,"S. aureus ATCC # 6538; S. aureus ATCC # 6538, contact time 48 hrs, component alone (Table 8)",30 ppm AI
same,Cb: MIC of MBIT alone,"S. aureus ATCC # 6538; S. aureus ATCC # 6538, contact time 48 hrs, component alone (Table 9)",30 ppm AI
same,"Cb: ppm AI of MBIT alone (MIC, QB)",S. aureus ATCC # 6538; contact time 24 hrs,15 ppm AI and 30 ppm AI
same,"Cb: ppm AI of MBIT alone (MIC, QB)",S. aureus ATCC # 6538; contact time 48 hrs,30 ppm AI
same,Cb: MIC of MBIT alone (QB),C. albicans ATCC # 10231; [7],30 ppm AI
same,Cb: MIC of MBIT alone,"C. albicans ATCC # 10231; C. albicans ATCC # 10231, contact time 48 hrs, component alone (Table 8)",30 ppm AI
same,Cb: MIC of MBIT alone,"C. albicans ATCC # 10231; C. albicans ATCC # 10231, contact time 48 hrs, component alone (Table 9)",30 ppm AI
same,Cb: MIC of MBIT alone,"C. albicans ATCC # 10231; C. albicans ATCC # 10231, contact time 48 hrs, component alone (Table 10)",30 ppm AI
same,Cb: MIC of MBIT alone (QB),C. albicans ATCC # 10231; [8],60 ppm AI and 30 ppm AI
same,Cb: MIC of MBIT alone,"C. albicans ATCC # 10231; C. albicans ATCC # 10231, contact time 72 hrs, component alone (Table 8)",30 ppm AI
same,Cb: MIC of MBIT alone,"C. albicans ATCC # 10231; C. albicans ATCC # 10231, contact time 72 hrs, component alone (Table 9)",30 ppm AI
same,Cb: MIC of MBIT alone,"C. albicans ATCC # 10231; C. albicans ATCC # 10231, contact time 72 hrs, component alone (Table 10)",60 ppm AI
same,"Cb: ppm AI of MBIT alone (MIC, QB)",C. albicans ATCC # 10231; contact time 48 hrs,30 ppm AI
same,"Cb: ppm AI of MBIT alone (MIC, QB)",C. albicans ATCC # 10231; contact time 72 hrs,30 ppm AI
"O=C([O-])CNCO.[Na+] [SUTTOCIDE A, sodium hydroxymethylglycinate]","Ca: ppm AI of first component (A) alone (MIC, QA)",A. niger ATCC # 16404; contact time 3 days,875 ppm AI
same,"Ca: ppm AI of first component (A) alone (MIC, QA)",A. niger ATCC # 16404; contact time 7 days,1100 ppm AI
same,"Ca: ppm AI of first component (A) alone (MIC, QA)",[1]; contact time 24 hrs,87.5 ppm AI
same,"Ca: ppm AI of first component (A) alone (MIC, QA)",[1]; contact time 48 hrs,110 ppm AI
same,"Ca: ppm AI of first component (A) alone (MIC, QA)",S. aureus ATCC # 6538; contact time 24 hrs,110 ppm AI
same,"Ca: ppm AI of first component (A) alone (MIC, QA)",S. aureus ATCC # 6538; contact time 48 hrs,110 ppm AI
same,"Ca: ppm AI of first component (A) alone (MIC, QA)",C. albicans ATCC # 10231; contact time 48 hrs,3000 ppm AI
same,"Ca: ppm AI of first component (A) alone (MIC, QA)",C. albicans ATCC # 10231; contact time 72 hrs,3000 ppm AI
N#CSCSc1nc2ccccc2s1 [TCMTB],Ca: MIC of TCMTB alone,A. niger ATCC # 16404; [2],3 ppm AI
same,Ca: MIC of TCMTB alone,A. niger ATCC # 16404; [3],8.75 ppm AI
same,Ca: MIC of TCMTB alone,"[1]; Ps. aeruginosa ATCC # 9027, contact time 48 hrs, component alone",212.5 ppm AI
same,Ca: MIC of TCMTB alone,"S. aureus ATCC # 6538; S. aureus ATCC # 6538, contact time 24 hrs, component alone",26.25 ppm AI
same,Ca: MIC of TCMTB alone,C. albicans ATCC # 10231; [7],4.25 ppm AI
same,Ca: MIC of TCMTB alone,C. albicans ATCC # 10231; [8],5.25 ppm AI
